The values below come from patent US5096904A, “Pyridazinones having cardiotonic and beta blocking activities” (Glaxo Inc., priority 1990, dated 1992).

This assay deals with dP/dt (contractility) in barbiturate-anesthetized dogs. The assay is described as follows: Anesthetized dog, inotropic effect (baseline left ventricular dP/dt). The conditions noted are these: with atenolol. The assay is classed as in vivo, mongrel dogs. The protocol:
Inotropic effects were evaluated in barbiturate-anesthetized dogs by differentiating left intraventricular pressure. This procedure was carried out essentially as described by M. K. Grizzel et al in the FASEB Journal, Vol. 3, page 1039, abstract 4728 (1989). […] Cardiac output was determined via thermodilution with a Spectramed computer (Starcom, Oxnard, Calif.) and a 5F Swan Ganz catheter which was inserted into the right jugular vein and positioned in the pulmonary artery. […] A lead II electrocardiogram was measured using subcutaneous electrodes. […] Rectal temperature was monitored and maintained at 37°-38° C. with a heating pad (Baxter Health Care model K20, McGaw Park, Ill.). All variables were recorded using a Gould 3800S physiograph.
Isoproterenol (0.1-0.5 mg/kg) was injected i.v. into the cephalic vein at 10 min intervals except for when the test drug infusion was begun. […] Inhibition of the isoproterenol responses on contractility (dP/dt), heart rate and diastolic blood pressure were determined at each dose of test compound. The inotropic effect of each compound was determined by comparing the level of dP/dt at the end of each 10 min period to that of the level of dP/dt just prior to the infusion of test compound. […]

As to `O=C(COc1ccc(C2=NNC(=O)CC2)cc1Cl)NCCNC[C@H](O)COc1ccccc1` [Example 19, 6-{4-[N-[2-[3-phenoxy-2-hydroxypropylamino]ethyl]carbamoylmethoxy]-3-chlorophenyl}-4,5-dihydro-3(2H)-pyridazinone], the “inotropic effects, blockade by atenolol” value was “not blocked by atenolol”.
